Results published in paper PMC9223267, “Serine hydroxymethyltransferase as a potential target of antibacterial agents acting synergistically with one-carbon metabolism-related inhibitors” (Communications Biology, 2022).
Several values for one entry are separate records, joined by “and”; a condition that tells them apart may be missing. Identical values can stand only once. Like-named read-outs stand apart in the source and are kept apart here.

Experiments:
[1] = tested on: E. faecium; experiment: Antibacterial assay with an excess concentration of biomolecules (Ser, Gly, inosine, dT, FA); format: cell-based, Enterococcus faecium (JCM5804); settings: Enterococcus faecium
Protocol: (§1) E. faecium and E. faecalis were diluted to turbidity equivalents that matched 1.0 McFarland (McF) standard in distilled water (S. aureus and E. coli were also diluted to 0.5 McF), and additionally diluted 1:200 in Mueller–Hinton (MH) broth. The designated concentrations of the tested compounds were prepared by ten-fold serial dilutions directly in 96-well microtiter plates (IWAKI, Shizuoka, Japan), as previously described. […] The other compounds were serially diluted from 20 μM downwards (final concentration, 10 μM). […] Positive control wells included bacteria without any compound, and the negative control wells only contained MH broth. […] The optical density at 600 nm (OD600) was measured using a GloMax microtiter plate reader (Promega, WI, USA), and the EC50 values of each test compound and standard error were calculated by Microsoft Excel function, AVERAGE and STDEV/SQRT.
The ratio of the control EC50 (no competitors added) to the experimental EC50 (competitors added) was calculated for each test substance.

[2] = tested on: E. coli; experiment: Antibacterial activity evaluation (turbidity, OD600); format: cell-based, Escherichia coli (ATCC25922); settings: Escherichia coli, E. coli ATCC25922
Protocol: as §1

[3] = tested on: E. faecalis; experiment: as above; format: cell-based, Enterococcus faecalis (JCM7783); settings: Enterococcus faecalis, E. faecalis JCM7783
Protocol: as §1

[4] = tested on: E. faecium; experiment: as above; format: cell-based, Enterococcus faecium (JCM5804); settings: Enterococcus faecium, E. faecium JCM5804
Protocol: as §1

[5] = tested on: S. aureus; experiment: as above; format: cell-based, Staphylococcus aureus (ATCC29213); settings: Staphylococcus aureus, S. aureus ATCC29213
Protocol: as §1

[6] = tested on: E. faecium; experiment: Bacterial viability assay (Microbial Viability Assay Kit-WST, OD450); format: cell-based, Enterococcus faecium
Protocol: Living E. faecium were determined using the Microbial Viability Assay Kit-WST (DOJINDO, Tokyo, Japan). […] Positive control wells included bacteria seeded into MH broth without compounds, and the negative control wells contained MH broth only. […] Five microlitres of the colouring reagent were added to each well of the 96-well plate every 2 h after starting incubation with each compound.

[7] = tested on: Caski cells; experiment: Cell cytotoxicity assay (Cell Counting Kit-8, 5 days); format: cell-based, human; settings: with each cell line (Caski, Hep-2 and Calu-3)
Protocol: After serial dilution, 100 μL of FBS-containing medium including the cells was added to each well of the plate. […] All CC50 determining assays were conducted in duplicate or triplicate[39],[40].

[8] = JCM5804, E. faecium JCM5804, 1 mM Inosine, read-out: pEC50 ± S.E. (converted)
[9] = JCM5804, E. faecium JCM5804, 1 mM deoxythymidine, read-out: EC50
[10] = JCM5804, E. faecium JCM5804, 1 mM deoxythymidine, read-out: pEC50 ± S.E. (converted)
[11] = JCM5804, E. faecium JCM5804, 10 mM Glycine, read-out: EC50
[12] = JCM5804, E. faecium JCM5804, 10 mM Glycine, read-out: pEC50 ± S.E. (converted)
[13] = JCM5804, E. faecium JCM5804, 100 mM Serine, read-out: EC50
[14] = JCM5804, E. faecium JCM5804, 100 mM Serine, read-out: pEC50 ± S.E. (converted)
[15] = JCM5804, E. faecium JCM5804, 0.1 M folate, read-out: EC50
[16] = JCM5804, E. faecium JCM5804, 0.1 M folate, read-out: pEC50 ± S.E. (converted)
[17] = read-out: pEC50 ± S.E. (converted)

EC50 [1, 8]	EC50 [1, 9]	EC50 [1, 10]	EC50 [1, 11]	EC50 [1, 12]	EC50 [1, 13]	EC50 [1, 14]	EC50 [1, 15]	EC50 [1, 16]	EC50 ([2]; read-out: EC50)	EC50 [2, 17]	EC50 ([3]; read-out: EC50)	EC50 [3, 17]	EC50 ([4]; read-out: EC50)	EC50 [4, 17]	EC50 ([5]; read-out: EC50)	EC50 [5, 17]	Compound	other results
7.94 nM	> 100000 nM	> 100000 nM	10 nM	10 nM	14 nM	12.6 nM	> 100000 nM	> 100000 nM	> 100000 nM	> 100000 nM	> 100000 nM	> 100000 nM	13 nM	12.6 nM	> 100000 nM	> 100000 nM	Cc1nc2ccc(CN(C)c3ccc(C(=O)N[C@@H](CCC(=O)O)C(=O)O)s3)cc2c(=O)[nH]1 [RTX, raltitrexed]	EC50 ([1]; JCM5804, E. faecium JCM5804, 1 mM Inosine, read-out: EC50): 8.2 nM
2.51 nM	54000 nM	50100 nM	2.1 nM	2 nM	3.3 nM	3.16 nM	41 nM	50.1 nM	170 nM	158 nM	270 nM	251 nM	2.8 nM	2.51 nM	290 nM	316 nM	COc1cc(Cc2cnc(N)nc2N)cc(OC)c1OC [TMP, trimethoprim]	Relative bacterial viability ([6]; 2 nM, 0 hours, single values): 0.02108 and 0.02214 and 0.02363 and 0.02319 and 0.01396 and 0.01461 and 0.0211 and 0.02201; Relative bacterial viability ([6]; 2 nM, 2 hours, single values): 0.03256 and 0.03276 and 0.0358 and 0.03793 and 0.02817 and 0.0276 and 0.03152 and 0.02983; Relative bacterial viability ([6]; 2 nM, 8 hours, single values): 0.6778 and 0.6938 and 0.7383 and 0.6754 and 0.6268 and 0.6594 and 0.6905 and 0.6243; Relative bacterial viability ([6]; 2 nM, 10 hours, single values): 0.7078 and 0.7215 and 0.7487 and 0.6774; Relative bacterial viability ([6]; 2 nM, 12 hours, single values): 0.7931 and 0.8524 and 0.8435 and 0.6543 and 0.7061 and 0.7294 and 0.7396 and 0.7126; Relative bacterial viability ([6]; 2 nM, 14 hours, single values): 0.8722 and 0.7867 and 0.9195 and 0.9126 and 0.8033 and 0.8796 and 0.8243 and 0.8853; Relative bacterial viability ([6]; 20 nM, 0 hours, single values): 0.02896 and 0.02213 and 0.01772 and 0.01904 and 0.02117 and 0.02218 and 0.02462 and 0.0192; Relative bacterial viability ([6]; 20 nM, 2 hours, single values): 0.03873 and 0.03054 and 0.0347 and 0.03215 and 0.02983 and 0.02843 and 0.03279 and 0.02955; Relative bacterial viability ([6]; 20 nM, 4 hours, single values): 0.0705 and 0.06896 and 0.0607 and 0.07039 and 0.05304 and 0.06167 and 0.06352 and 0.06901; Relative bacterial viability ([6]; 20 nM, 6 hours, single values): 0.09036 and 0.1064 and 0.1059 and 0.1127 and 0.1209 and 0.1443 and 0.152 and 0.1417; Relative bacterial viability ([6]; 20 nM, 8 hours, single values): 0.1279 and 0.1203 and 0.1189 and 0.109 and 0.09529 and 0.09698 and 0.1178 and 0.11; Relative bacterial viability ([6]; 20 nM, 10 hours, single values): 0.1127 and 0.1159 and 0.1045 and 0.09171 and 0.08771 and 0.09868 and 0.1124 and 0.1197; Relative bacterial viability ([6]; 20 nM, 12 hours, single values): 0.09851 and 0.09831 and 0.1104 and 0.1131 and 0.09658 and 0.1085 and 0.1167 and 0.1091; EC50 ([6]; Enterococcus faecium, relative bacterial viability after 14 h incubation): 8.8 nM; selectivity index (S.I.): CC50 against each cell line / EC50 against E. faecium [7]: high bacterial selectivity
																	CN[C@H](CC(C)C)C(=O)N[C@H]1C(=O)N[C@@H](CC(N)=O)C(=O)N[C@H]2C(=O)N[C@H]3C(=O)N[C@H](C(=O)N[C@H](C(=O)O)c4cc(O)cc(O)c4-c4cc3ccc4O)[C@H](O)c3ccc(c(Cl)c3)Oc3cc2cc(c3O[C@@H]2O[C@H](CO)[C@@H](O)[C@H](O)[C@H]2O[C@H]2C[C@](C)(N)[C@H](O)[C@H](C)O2)Oc2ccc(cc2Cl)[C@H]1O [VCM, vancomycin]	EC50 [1]: 0.29 µg/mL; EC50 ([1]; VCM in μg/mL, 1 mM Inosine, read-out: EC50): 0.34 µg/mL; EC50 ([1]; VCM in μg/mL, 1 mM deoxythymidine, read-out: EC50): 0.42 µg/mL; EC50 ([1]; VCM in μg/mL, 100 mM Serine, read-out: EC50): 0.3 µg/mL; EC50 ([1]; VCM in μg/mL, 0.1 M folate, read-out: EC50): 0.31 µg/mL; EC50 ([2]; VCM in μg/mL, read-out: EC50): > 100 µg/mL; EC50 ([3]; VCM in μg/mL, read-out: EC50): 3.2 µg/mL; EC50 ([4]; VCM in μg/mL, read-out: EC50): 0.31 µg/mL; EC50 ([5]; VCM in μg/mL, read-out: EC50): 0.36 µg/mL
																	NCC(=O)O [glycine]	Relative bacterial viability ([6]; 50 mM glycine (Supplementary Fig. S2)): ~ 0.75; Relative bacterial viability ([6]; 100 mM glycine (Supplementary Fig. S2)): ~0.40
